Results: US20220288026A1, “METHODS OF TREATING KIDNEY DISEASES” (priority 2019, published 2022)
Entries after “also recorded” stand apart in the source; their conditions may differ. Like-named read-outs stand apart in the source and are kept apart here.

What was measured:
g-ddY mice = test: UACR (albuminuria) in g-ddY mouse model of IgA nephropathy; assay type: in vivo
Description: The grouped ddY (g-ddY) mouse is a spontaneous model of early-onset IgA nephropathy characterized by IgA immune complex deposition in the mesangium of the kidney, leading to significant proteinuria, glomerular hypercellularity, mesangioproliferative glomerular lesions, glomerular sclerosis and reduced kidney function, all hallmarks of human IgA nephropathy (J Am Soc Nephrol 23: 1364-1374, 2012). Consistent with human IgA nephropathy, the mesangial IgA deposits in the g-ddY mouse are also accompanied by deposition of IgG and complement C3.

[1] = test system: kidney tissue of g-ddY mice
[2] = test system: kidney tissue of g-ddY mice; test: Ingenuity Pathway Analysis (IPA) canonical pathways, g-ddY kidney RNA-seq; assay type: in vivo, mouse; settings: 30 mg/kg/day
Protocol: (§1) RNA isolation and sequencing libraries were generated using standard protocols. Sequencing was performed using an Illumina NextSeq500 using manufacturer's instructions with a read length of 75 bp and a read depth of 30 million. Raw data was assembled to FASTQ files. Following QC analysis, high quality sequencing reads (e.g., reads with a Phred quality score >36) were aligned to the mouse reference genome (GRCm38-mm10) using the default parameters of the align algorithm and transcript count tables of each library was generated using the default parameters of the featureCounts algorithm of the RSubread package (Liao Y, Smyth G K, Shi W, 2019). High quality sequencing reads mapped to 27,129 genes. Following additional QC of low count filtering (i.e. transcripts <10 counts across all samples), 16,207 genes were identified and used for further analysis. The remaining sequencing read counts of the included 16,207 genes were normalized to library size, log-transformed, and were quantified as counts per million (CPM). Select RNA-seq counts were validated using qPCR.

[3] = test system: primary human renal mesangial cells (HRMCs); test: Proliferation (BrdU) of HRMCs stimulated with IgA-containing immune complexes; assay type: cell-based
Description: Primary human mesangial cells in a culture were stimulated with pathogenic galactose deficient (Gd)-IgA containing immune complexes isolated from human IgA nephropathy patients.
Specifically, pathogenic IgA-containing immune complexes were isolated from serum from either IgA nephropathy patients or age, gender and ethnicity-matched healthy individuals. Frozen serum was purchased from BioIVT and IgA-containing immune complexes were purified using jacalin affinity chromatography. […] Purified IgA-containing immune complexes were concentrated using a 100K Amicon filtration unit and the amount of total IgA and galactose-deficient IgA (Gd-IgA) in the immune complexes was measured by ELISA (ThermoFisher and IBL America, respectively). […] See, e.g., Novak et. al., Kidney International, 67, pp. 504-516; 2005; Novak et. al., Nephrol. Dial. Transplant, 26, pp. 3451-3457; 2011; Liang et. al., Cell Physiol. Biochem., 36, pp. 1793-1808; 2015; Nguyen et. al., Clin. Kidney J., 12 (2), pp, 232-238; 2019.

[4] = test system: patients with diabetic kidney disease (DKD); settings: cited from earlier work
[5] = test system: kidney tissue of g-ddY mice; test: IPA upstream regulator analysis, g-ddY kidney RNA-seq; assay type: in vivo, mouse; settings: 30 mg/kg/day
[6] = test system: kidney tissue of g-ddY mice; test: Gene Set Enrichment Analysis (GSEA) hallmark gene sets, g-ddY kidney RNA-seq; assay type: in vivo, mouse
Protocol: as §1

[7] = 10 mg/kg/day vs untreated control
[8] = 20 mg/kg/day vs untreated control
[9] = 30 mg/kg/day vs untreated control

## CCCCN(CCCC)C(=O)CN1C[C@H](c2ccc3c(c2)OCO3)[C@@H](C(=O)O)[C@@H]1c1ccc(OC)cc1 [atrasentan, (2R,3R,4S)-4-(1,3-benzodioxol-5-yl)-1-[2-(dibutylamino)-2-oxoethyl]-2-(4-methoxyphenyl)pyrrolidine-3-carboxylic acid]
g-ddY mice; 10 mg/kg/day
  UACR reduction compared to control group (un-paired t-test): not significant
g-ddY mice; 10 mg/kg/day group
  mice with reduced albuminuria/proteinuria: ⅔
g-ddY mice; 10 mg/kg/day, approximately 5 days
  albuminuria compared to baseline (paired t-test): not significantly changed from baseline
g-ddY mice; 20 mg/kg/day, P=0.0498
  UACR reduction compared to control group (un-paired t-test): statistically significant compared to the control group
g-ddY mice; 20 mg/kg/day, approximately 5 days, P=0.0593
  albuminuria compared to baseline (paired t-test): reduced from baseline to a similar extent
g-ddY mice; 30 mg/kg/day, P=0.029
  UACR reduction compared to control group (un-paired t-test): statistically significant compared to the control group
g-ddY mice; 30 mg/kg/day, approximately 5 days, P=0.0002
  albuminuria compared to baseline (paired t-test): reduced albuminuria from baseline
g-ddY mice; 20 and 30 mg/kg/day, approximately 5 days
  albuminuria reduction from baseline: > 60%
[1]; [7]
  ET1 gene signature genes downregulated: Grk5, Mllt3, Klf2, Pparg, Hgf, Edn1, Fos, Ptgs2, and IL-1b were downregulated
  ET1 gene signature genes upregulated: Ccnd1, Ppara, Agt, Map2k2 and Hoxa9 were upregulated
[1]; [8]
  ET1 gene signature genes downregulated: Nfatc1, Grk5, Klf2, Cav1, Pparg, Itga5, Myc, Ednra, Sell, Hgf, Mmp2, Edn1, Syk, Fos, and IL-1b were downregulated
  ET1 gene signature genes upregulated: Ccdn1, Cat, Ppara, Map2k2, Hoxa9, Agt, and Egfr were upregulated
[1]; [9]
  ET1 gene signature genes downregulated: downregulated genes Ednrb, Myc, Mllt3, Hdac7, Ednra, Itga5, Grk5, Pparg, Klf2, Hgf, Mmp2, Sell, Sphk1, Fos, Syk, Edn1, and IL-1b
  ET1 gene signature genes upregulated: upregulated genes Ccnd1, Agt, Cat, Map2k2, Hoxa9, and Ppara
[1]; 10, 20, and 30 mg/kg/day
  ET1 (Edn1) gene expression: downregulated across all three doses
[2]
  IPA: effect on signaling pathways: reduced NF-κB signaling, IL-6 pathway signaling (e.g., STAT3), and PDGF signaling
  NF-κB signaling: reduced NF-κB signaling
  PDGF signaling: reduced PDGF signaling
[3]; IgA containing serum fractions from healthy controls
  basal cell proliferation of HRMCs: no effect on basal cell proliferation
[3]; immune complexes from three patients with IgA nephropathy
  hyperproliferation of HRMCs induced by IgA containing immune complexes: reduces the proliferation; also recorded: significantly attenuated the hyperproliferation
[4]
  risk of renal events (doubling of serum creatinine or end-stage kidney disease): significantly reducing the risk of renal events
[5]
  Predicted Activation State 26s Proteasome: Inhibited
  Predicted Activation State ADGRF5: Activated
  Predicted Activation State AGT: Inhibited
  Predicted Activation State BMP2: Inhibited
  Predicted Activation State CCL5: Inhibited
  Predicted Activation State CCN5: Activated
  Predicted Activation State CCR2: Inhibited
  Predicted Activation State CD40LG: Inhibited
  Predicted Activation State CG: Inhibited
  Predicted Activation State CHRM3: Inhibited
  Predicted Activation State CSF2: Inhibited
  Predicted Activation State CSF3: Inhibited
  Predicted Activation State CXCL12: Inhibited
  Predicted Activation State DKK1: Activated
  Predicted Activation State EDN1: Inhibited
  Predicted Activation State EDNRA: Inhibited
  Predicted Activation State EGF: Inhibited
  Predicted Activation State F2R: Inhibited
  Predicted Activation State F3: Inhibited
  Predicted Activation State FAS: Activated
  Predicted Activation State FCGR1A: Inhibited
  Predicted Activation State FGF2: Inhibited
  Predicted Activation State FGF23: Inhibited
  Predicted Activation State GDF2: Inhibited
  Predicted Activation State GPER1: Inhibited
  Predicted Activation State HGF: Inhibited
  Predicted Activation State HTR7: Inhibited
  Predicted Activation State IFNA2: Inhibited
  Predicted Activation State IFNAR1: Inhibited
  Predicted Activation State IFNG: Inhibited
  Predicted Activation State IGF1: Inhibited
  Predicted Activation State IGF1R: Activated
  Predicted Activation State IL1A: Inhibited
  Predicted Activation State IL1B: Inhibited
  Predicted Activation State IL2: Inhibited
  Predicted Activation State IL3: Inhibited
  Predicted Activation State IL6: Inhibited
  Predicted Activation State IL6R: Inhibited
  Predicted Activation State IL10: Inhibited
  Predicted Activation State IL21: Inhibited
  Predicted Activation State IL33: Inhibited
  Predicted Activation State ILR4: Inhibited
  Predicted Activation State Ifn gamma: Inhibited
  Predicted Activation State Ige: Inhibited
  Predicted Activation State LDL: Inhibited
  Predicted Activation State LGR5: Activated
  Predicted Activation State Laminin (complex): Activated
  Predicted Activation State NFkB (complex): Inhibited
  Predicted Activation State NRG1: Inhibited
  Predicted Activation State OSM: Inhibited
  Predicted Activation State PDGF BB: Inhibited
  Predicted Activation State PDGFB: Inhibited
  Predicted Activation State PF4: Inhibited
  Predicted Activation State PI3K (complex): Inhibited
  Predicted Activation State PLA2R1: Activated
  Predicted Activation State PRL: Inhibited
  Predicted Activation State PROKR1: Activated
  Predicted Activation State PTGER4: Activated
  Predicted Activation State Pdgf (complex): Inhibited
  Predicted Activation State SMO: Activated
  Predicted Activation State TCR: Inhibited
  Predicted Activation State TGFB1: Inhibited
  Predicted Activation State TGFB2: Inhibited
  Predicted Activation State TGFB3: Inhibited
  Predicted Activation State TLR3: Inhibited
  Predicted Activation State TLR9: Inhibited
  Predicted Activation State TNF: Inhibited
  Predicted Activation State TNFRSF1A: Inhibited
  Predicted Activation State TNFSF11: Inhibited
  Predicted Activation State TNFSF12: Inhibited
  Predicted Activation State TREM1: Inhibited
  Predicted Activation State TSLP: Inhibited
  Predicted Activation State TYROBP: Inhibited
  Predicted Activation State VEGFA: Inhibited
  Predicted Activation State VEGFB: Activated
  Predicted Activation State WNT3A: Inhibited
[6]; 10 mg/kg/day vs. control
  NES HALLMARK_REACTIVE_OXYGEN_SPECIES_PATHWAY: 1.59
[6]; 20 mg/kg/day vs. control
  NES HALLMARK_REACTIVE_OXYGEN_SPECIES_PATHWAY: 1.61
[6]; 30 mg/kg/day
  IL-6 signaling: reduced IL-6 signaling
  cell proliferation associated signaling (mitotic spindle and G2M checkpoint): reduced cell proliferation associated signaling
  inflammatory response signaling: reduced inflammatory response signaling
[6]; 30 mg/kg/day vs. control
  NES HALLMARK_REACTIVE_OXYGEN_SPECIES_PATHWAY: 1.98
[6]; 10, 20, and 30 mg/kg/day
  GSEA: TNFα signaling via NF-κB, epithelial mesenchymal transition, inflammatory response, IL6-JAK-STAT3 signaling, mitotic spindle, G2M checkpoint: concordant negative enrichment
